Source: publication PMC8129719 (CPT: Pharmacometrics & Systems Pharmacology, 2021)
Several values for one entry are separate records, joined by “and”; a condition that tells them apart may be missing. Equal values may be shown once. Where a name gives a salt, the structure may show the parent alone. Read-outs that look alike come from different tables or passages of the source.

What was measured:
[1] = probenecid 500 mg 4 times a day; ref Willemin et al. (accepted for publication); cited from earlier work
[2] = type: in vivo, human; conditions: for CL renal: female, human, plasma and urine, oral; for contribution of renal elimination to total clearance: from model CLr and CLnr; for CLr, IIV (SE%) / k syn, IIV (SE%): interindividual variability; for CLnr, population estimate (SE%): nonrenal clearance of biomarker; for V, population estimate (SE%): volume of distribution of biomarker; for k syn, population estimate (SE%): zero-order synthesis rate
[3] = probenecid 1000 mg single dose, 14 healthy volunteers, digitized data; cited from earlier work
[4] = Population PK model of probenecid plasma data; type: in vivo, human; conditions: for CL, IIV (SE%) / V, IIV (SE%): interindividual variability

Row | CL renal [2] [mL/min] | contribution of renal elimination to total clearance [2] [%] | CLr, IIV (SE%) [2] | k syn, IIV (SE%) [2] | CLr, IOV (SE%) ([2]; interoccasion variability) | CLnr, population estimate (SE%) [2] | V, population estimate (SE%) [2] | k syn, population estimate (SE%) [2] | k syn, IOV (SE%) ([2]; interoccasion variability between the two phases) | ka, population estimate (SE%) ([4]; absorption rate constant) | CL, IIV (SE%) [4] | V, IIV (SE%) [4] | CL, IIV (SE%) ([4]; listed as probenecid) [%] | V, IIV (SE%) ([4]; listed as probenecid) [%] | V, population estimate (SE%) ([4]; probenecid one-compartment model) | Compound | fold change of plasma AUC0-24 h following probenecid [1] [fold] | mean plasma AUC0-tlast ratio, observed [3]
1 | – | – | – | – | – | – | – | – | – | – | – | – | – | – | – | C[C@H](CCC(=O)NCC(=O)O)[C@H]1CC[C@H]2[C@@H]3[C@H](O)C[C@@H]4C[C@H](OS(=O)(=O)O)CC[C@]4(C)[C@H]3CC[C@]12C [GCDCA-S, glycochenodeoxycholate sulfate] | 1.9 | –
2 | 340 | 94 | 23 (26) % | 27 (19) % | 5 (48) % | 1.29 (69) L/h | 105 (35) L | 212 (16) µg/h | – | – | – | – | – | – | – | COc1cc(CC(=O)O)ccc1O [HVA, homovanillic acid] | 2.2 | –
3 | 253 | 82 | 27% and 27 (15) % | 32% and 32 (34) % | – | 3.23 (41) L/h | 9.34 (56) L | 58.6 (26) µg/h | 22 (57) % | – | – | – | – | – | – | Cc1ncc(CO)c(C(=O)O)c1O [PDA, Pyridoxic acid] | 3.9 | 1.95
4 | – | – | – | – | – | – | – | – | – | 0.74 (45) /h | 23 (23) % | 40 (29) % | 23 | 40 | 15 (22) L | CCCN(CCC)S(=O)(=O)c1ccc(C(=O)O)cc1 [Probenecid, probenecid] | – | –
